Data set [1] deals with T1, Non-structural protein 4b (Hepacivirus hominis, UniProt F5B4I0).
T1 sequence (F5B4I0 whole entry): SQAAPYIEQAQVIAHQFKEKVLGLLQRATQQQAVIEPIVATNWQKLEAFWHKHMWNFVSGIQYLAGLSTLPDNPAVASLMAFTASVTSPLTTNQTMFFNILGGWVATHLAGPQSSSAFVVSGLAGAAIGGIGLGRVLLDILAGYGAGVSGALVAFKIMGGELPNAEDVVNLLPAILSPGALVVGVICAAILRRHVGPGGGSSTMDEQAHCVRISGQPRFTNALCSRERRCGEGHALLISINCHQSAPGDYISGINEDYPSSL
The data set can be described thus: Binding affinity to Hepatitis C virus genotype 6a NS4B assessed as inhibition constant.

Data set [2] concerns the target T1, Non-structural protein 4b. The data set can be described thus: Inhibition of Hepatitis C virus genotype 5a NS4B.
Data set [3] has as its target T1, Non-structural protein 4b. The data set can be described thus: Binding affinity to Hepatitis C virus genotype 1b NS4B assessed as inhibition constant.
Data set [4] in a line: Half life in Beagle dog at 5 mg/kg, po by LC-MS/MS analysis. Particulars: in vivo. It counts as ADME, organism-based, Canis lupus familiaris.
In data set [5] the target is T1, Non-structural protein 4b. The data set can be described thus: Inhibition of Hepatitis C virus genotype 1b NS4B.
Data set [6] deals with T1, Non-structural protein 4b. The data set can be described thus: Inhibition of Hepatitis C virus genotype 2b NS4B.
The test system of a further data set is Hepatitis C virus. The data set can be described thus: Antiviral activity against HCV assessed as inhibition of RNA replication. In kind it is functional, organism-based, Hepacivirus hominis.
For data set [7], the target named is T1, Non-structural protein 4b. The data set can be described thus: Inhibition of Hepatitis C virus genotype 3a NS4B.
In data set [8] the target is T1, Non-structural protein 4b. The data set can be described thus: Inhibition of Hepatitis C virus genotype 4a NS4B.
Data set [9] in a line: Oral bioavailability in Beagle dog at 2 mg/kg. In kind it is ADME, organism-based, Canis lupus familiaris. Particulars: in vivo.
Data set [10] addresses T1, Non-structural protein 4b. The data set can be described thus: Binding affinity to Hepatitis C virus genotype 4a NS4B assessed as inhibition constant.
In data set [11] the target is Hepatitis C virus NS5B RNA-dependent RNA polymerase (Hepatitis C virus, UniProt Q8JXU8). The data set can be described thus: Binding affinity to Hepatitis C virus genotype 2a NS5B polymerase assessed as inhibition constant.
Chain of Hepatitis C virus NS5B RNA-dependent RNA polymerase (Q8JXU8 whole entry): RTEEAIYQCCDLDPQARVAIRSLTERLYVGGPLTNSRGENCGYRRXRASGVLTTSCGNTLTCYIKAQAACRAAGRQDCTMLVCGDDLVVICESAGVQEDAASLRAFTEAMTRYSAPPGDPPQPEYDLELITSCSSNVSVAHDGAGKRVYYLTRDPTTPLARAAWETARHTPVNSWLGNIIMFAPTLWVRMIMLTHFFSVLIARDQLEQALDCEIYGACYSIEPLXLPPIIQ
Data set [12] deals with T1, Non-structural protein 4b. The data set can be described thus: Inhibition of Hepatitis C virus genotype 1a NS4B.
Data set [13] concerns the target T1, Non-structural protein 4b. The data set can be described thus: Binding affinity to Hepatitis C virus genotype 1a NS4B assessed as inhibition constant.
Data set [14] is described as follows: Oral bioavailability in Sprague-Dawley rat. It counts as ADME, organism-based. The note with it: in vivo.
In data set [15] the target is T1, Non-structural protein 4b. The data set can be described thus: Binding affinity to Hepatitis C virus genotype 3a NS4B assessed as inhibition constant.
Data set [16] has as its target T1, Non-structural protein 4b. The data set can be described thus: Inhibition of Hepatitis C virus genotype 6a NS4B.
Data set [17] is described as follows: Half life in Sprague-Dawley rat at 5 mg/kg, po by LC-MS/MS analysis. It counts as ADME, organism-based. Particulars: in vivo.
A short description of data set [18]: AUC in Sprague-Dawley rat at 2 mg/kg, po. In kind it is ADME, organism-based. Particulars: in vivo.
The target in data set [19] is T1, Non-structural protein 4b. The data set can be described thus: Inhibition of Hepatitis C virus genotype 3a NS4B expressed in Escherichia coli.
The test system of a further data set is SARS-CoV-2. The data set can be described thus: Antiviral activity against SARS-CoV-2 infected in African green monkey Vero cells assessed as reduction in viral replication measured after 72 hrs by qRT-PCR analysis. In kind it is functional, organism-based. Particulars: Severe acute respiratory syndrome coronavirus 2, Vero.
Another data set has as its system RNA. The data set can be described thus: Inhibition of Hepatitis C virus RNA. It counts as nucleic-acid assay, Hepacivirus hominis.

“And” between values parts separate entries of the source, which are not always exact repeats. Equal values may be shown once.

What is called Ki is a dissociation constant, usually derived from enzyme kinetics or from competition with a known ligand. A word on the IC50: it is the midpoint of a concentration-inhibition curve. The half-life is how long it takes for the measured level to halve. Usually EC50 stands for the concentration giving half of the maximal effect. One may read the bioavailability as dose-corrected exposure relative to a reference, in per cent. Broadly, the AUC is concentration integrated over time. For `CC(C)(C)[C@@H]1NC(=O)O[C@@H]2CCC[C@H]2OC/C=C/C(F)(F)c2nc3ccccc3nc2O[C@@H]2C[C@@H](C(=O)N[C@]3(C(=O)NS(=O)(=O)C4(C)CC4)C[C@H]3C(F)F)N(C2)C1=O`, the Ki is 0.11 nM in [1]; 0.063 nM in data set [3]; 0.92 nM and 0.092 nM in [10]; 0.053 nM in data set [11]; 0.075 nM in data set [13]; 0.96 nM in [15]. Moreover, the IC50 in data set [2] came to 8.1 nM; in data set [5] it was 8.9 nM; in data set [6] it was 3.8 nM; in data set [7], 7900 nM; in [8] it was 6.1 nM; in [12], 4.4 nM. This molecule also gave an IC50 in [16] of 11.3 nM. Further, the values for the half-life in [4] and in data set [17] were 0.6 h and 2.8 h, respectively. Further, the EC50 in the data set with Hepatitis C virus was 0.24 nM. The bioavailability was found to be 95% in data set [9] and 90% in [14]. In [18], this molecule returned an area under the curve (AUC) of 22 µM·h.

For `CC(C)Oc1ccc(-c2nc(O[C@@H]3C[C@H]4C(=O)N[C@]5(C(=O)NS(=O)(=O)C6(C)CC6)C[C@H]5/C=C\CCCCC[C@H](NC(=O)OC5CCCC5)C(=O)N4C3)c3oc4ccccc4c3n2)cc1`, the IC50 in data set [2] was 0.6 nM; in data set [5], 0.6 nM; in data set [7], 600 nM; in [8] it was 0.6 nM; in data set [12], 0.6 nM; in data set [16], 0.6 nM. In addition, the EC50 (in data set [19]; with SARS-CoV-2) was 1.6 nM in each case.

The molecule `Cc1ccc2nc(-c3ccc4nc(-c5ccc(NC(=O)c6cc(C(F)(F)F)cc(C(F)(F)F)c6)cc5)sc4c3)sc2c1S(=O)(=O)O` had an IC50 in the data set on RNA of 5 nM.

(Values after ChEMBL document CHEMBL5537165, “Hepatitis C: The Story of a Long Journey through First, Second, and Third Generation NS3/4A Peptidomimetic Inhibitors. What Did We Learn?” (J Med Chem, 2024).)
